In patent US12534450B2, “Methods and compositions for targeting PD-L1” (Aligos Therapeutics, Inc., priority 2021, dated 2026):

Assays:
PD-1/PD-L1 PPI = PD-1/PD-L1 PPI (Homo sapiens, UniProt Q9NZQ7); assay: PDL1/PD1 Binding Assay; settings: PDL1-6×His 0.3 nM, PD1-Fc-Avi-Biotin 2.5 nM, Acceptor/Donor beads, Envision reader
Protocol: Compounds to be tested were serially diluted in DMSO, and further diluted in assay buffer (25 mM Hepes pH 7.4, 150 mM NaCl, 0.005% Tween 20, BSA 0.01%). Diluted compounds were added to the wells with final concentration of DMSO at 1%. PDL1-6×His protein was added to the wells, mixed well with compound. The plates were incubated for 30 min at room temperature. PD1-Fc-Avi-Biotin protein was added to the wells. Final concentration of PDL1 and PD1 protein is 0.3 nM and 2.5 nM, respectively. After a binding time of 30 min at room temperature, Anti-6×His Acceptor beads (final concentration 20 ug/ml) were added to the wells, and the incubation continued for 1 h. Streptavidin Donor beads (final concentration 20 ug/mL) were added at reduced light. The plates were sealed with foil and incubated in the dark for additional 1 h or overnight before reading on an Envision reader. The IC50 values were determined by fitting the curves using a four-parameter equation in Graphpad Prism 8.

PD-1/PD-L1 interaction = assay: PD-1/PD-L1 NFAT Reporter Assay (co-culture of Jurkat T cells overexpressing PD-1 and PD-L1 expressing CHO cells); type: cell-based; settings: co-culture 6 hrs at 37° C., NFAT-mediated luciferase activity
Protocol: Blocking the PD-1/PD-L1 interaction will release the inhibitory signal and results in TCR signaling and NFAT-mediated luciferase activity.
CHO cells expressing surface-bound anti-CD3 antibodies and PD-L1 were first seeded overnight and treated with the compounds. Jurkat cells overexpressing PD-1 and a luciferase construct under NFAT promoter were then immediately seeded on the monolayer of CHO cells. The co-culture was then incubated for 6 hrs at 37° C. Luciferase activity was assessed by adding the ONE-Glo reagent and measuring luminescence with a plate reader. EC50 values were determined from the fit of the dose-response curves.

Sequence of PD-1/PD-L1 PPI (Q9NZQ7 19-238 limits assumed): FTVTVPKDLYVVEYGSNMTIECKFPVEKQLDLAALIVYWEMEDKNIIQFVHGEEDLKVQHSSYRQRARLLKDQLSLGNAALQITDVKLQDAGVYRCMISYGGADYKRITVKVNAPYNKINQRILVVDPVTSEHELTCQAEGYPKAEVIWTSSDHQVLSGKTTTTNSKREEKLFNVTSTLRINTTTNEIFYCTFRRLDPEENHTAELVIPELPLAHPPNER

Compound	IC50 (PD-1/PD-L1 PPI) [nM]	EC50 (PD-1/PD-L1 interaction; Homo sapiens, Jurkat, 6 h) [nM]	EC50 (PD-1/PD-L1 interaction) [nM]
COc1nc(-c2cccc(-c3cccc(NC(=O)c4cn(C)c(=O)n(C)c4=O)c3C)c2C)cc2c1[C@@H](N[C@@H]1COC[C@@H]1O)CC2 (single isomer, unassigned) [Compound A-105]	10 to 100	10 to 100	
COc1nc(-c2cccc(-c3cccc(NC(=O)c4cn(C)c(=O)n(C)c4=O)c3C)c2C)cc2c1[C@H](N1CC(OC)C1)CC2 (single isomer, unassigned) [Compound A-84]	10 to 100	> 5000	
COc1nc(-c2cccc(-c3cc(F)cc(NC(=O)c4ccnn(C)c4=O)c3C)c2Cl)cc2c1[C@@H](NC[C@@H]1CCC(=O)N1)CC2 [Compound A-63]	≤ 10	≤ 10	
COc1nc(-c2cccc(-c3cccc(NC(=O)c4cn(C)c(=O)n(C)c4=O)c3C)c2Cl)cc2c1C(NC1CC1)CC2 [Compound D-11]	≤ 10	10 to 100	
COc1nc(-c2cccc(-c3cccc(NC(=O)c4cn(C)c(=O)n(C)c4=O)c3C)c2Cl)cc2c1[C@@H](NC[C@@H]1CCC(=O)N1)CC2 [Compound A-2]	≤ 10	≤ 10	
COc1nc(-c2cc(F)cc(-c3cc(F)cc(NC(=O)c4cn(C)c(=O)n(C)c4=O)c3C)c2Cl)cc2c1[C@@H](NC[C@@H]1CCC(=O)N1)CC2 [Compound A-64]	≤ 10	≤ 10	
COc1nc(-c2cccc(-c3cccc(NC(=O)c4cn(C)c(=O)n(C)c4=O)c3Cl)c2Cl)cc2c1[C@H](N1CC3(CN(C(C)=O)C3)C1)CC2 (single isomer, unassigned) [Compound A-23]	≤ 10	≤ 10	
COc1nc(-c2cc(F)cc(-c3cc(F)cc(NC(=O)c4cn(C)c(=O)n(C)c4=O)c3Cl)c2Cl)cc2c1[C@@H](NC[C@@H]1CCC(=O)N1)CC2 [Compound A-66]	≤ 10	10 to 100	
COc1nc(-c2cccc(-c3cccc(NC(=O)c4cn(C)c(=O)n(C)c4=O)c3C)c2Cl)cc2c1[C@H](N[C@@H]1CCOC[C@@H]1O)CC2 (single isomer, unassigned) [Compound A-33]	≤ 10	≤ 10	
CCOC(=O)C1CN([C@@H]2CCc3cc(-c4cccc(-c5cccc(NC(=O)c6cn(C)c(=O)n(C)c6=O)c5Cl)c4Cl)nc(OC)c32)C1 (single isomer, unassigned) [Compound A-86]	100 to 1000	> 5000	
COc1nc(-c2cccc(-c3cccc(NC(=O)c4nn(C)c(=O)n(C)c4=O)c3C)c2C)cc2c1[C@H](N[C@@H]1CCOC[C@H]1O)CC2 (single isomer, unassigned) [Compound A-92]	≤ 10	10 to 100	
COc1nc(-c2cccc(-c3cccc(NC(=O)c4cn(C)c(=O)n(C)c4=O)c3C)c2Cl)cc2c1[C@H](N1CC(O)C1)CC2 (single isomer, unassigned) [Compound A-28]	≤ 10	≤ 10	
COc1nc(-c2cccc(-c3cccc(NC(=O)c4cn(C)c(=O)n(C)c4=O)c3C)c2Cl)cc2c1C(NC1COC1)CC2 [Compound D-10]	≤ 10	10 to 100	
COc1nc(-c2cc(F)cc(-c3cccc(NC(=O)c4cn(C)c(=O)n(C)c4=O)c3C)c2Cl)cc2c1[C@@H](NC[C@@H]1CCC(=O)N1)CC2 [Compound A-69]	≤ 10	≤ 10	
COc1nc(-c2cccc(-c3cccc(NC(=O)c4cn(C)c(=O)n(C)c4=O)c3F)c2Cl)cc2c1[C@@H](NC[C@@H]1CCC(=O)N1)CC2 [Compound A-3]	≤ 10	≤ 10	
COc1nc(-c2cccc(-c3cccc(NC(=O)c4cn(C)c(=O)n(C)c4=O)c3C)c2Cl)cc2c1C(NC[C@@H]1CCC(=O)N1)CC2C (stereo partly shown) [Compound A-122]	≤ 10	100 to 1000	
COc1nc(-c2cccc(-c3cccc(NC(=O)c4cn(C)c(=O)n(C)c4=O)c3C)c2Cl)cc2c1C(NC[C@@H]1CCC(=O)N1)C(C)C2 (stereo partly shown) [Compound A-121]	≤ 10	10 to 100	
COc1nc(-c2cccc(-c3cccc(NC(=O)c4nn(C)c(=O)n(C)c4=O)c3Cl)c2Cl)cc2c1[C@@H](N[C@@H]1COC[C@@H]1O)CC2 (single isomer, unassigned) [Compound A-107]	≤ 10	≤ 10	
COc1nc(-c2cccc(-c3cccc(NC(=O)c4nn(C)c(=O)n(C)c4=O)c3C)c2Cl)cc2c1[C@@H](N[C@@H]1CCOC[C@H]1O)CC2 (single isomer, unassigned) [Compound A-95]	≤ 10	100 to 1000	
COc1nc(-c2cccc(-c3cccc(NC(=O)c4cn(C)c(=O)n(C)c4=O)c3F)c2F)cc2c1[C@H](NC[C@@H]1CCC(=O)N1)CC2 [Compound A-17]	≤ 10	100 to 1000	
COc1nc(-c2cccc(-c3cccc(NC(=O)c4nn(C)c(=O)n(C)c4=O)c3Cl)c2Cl)cc2c1[C@H](N[C@@H]1COC[C@@H]1O)CC2 (single isomer, unassigned) [Compound A-108]	≤ 10	100 to 1000	
COc1nc(-c2cccc(-c3cccc(NC(=O)c4cn(C)c(=O)n(C)c4=O)c3Cl)c2Cl)cc2c1C(N1CC(O)C1)CC2 [Compound D-2]	≤ 10	≤ 10	

The next lines start with the values.

IC50 (PD-1/PD-L1 PPI) [nM]	EC50 (PD-1/PD-L1 interaction; Homo sapiens, Jurkat, 6 h) [nM]	EC50 (PD-1/PD-L1 interaction) [nM]	Compound
≤ 10	≤ 10		COc1nc(-c2cccc(-c3cccc(NC(=O)c4cn(C)c(=O)n(C)c4=O)c3Cl)c2Cl)cc2c1[C@@H](N1CC(C(=O)O)C1)CC2 (single isomer, unassigned) [Compound J-3]
≤ 10	≤ 10		COc1nc(-c2cccc(-c3cccc(NC(=O)c4cn(C)c(=O)n(C)c4=O)c3Cl)c2Cl)cc2c1[C@H](N1CC3(CCNC3=O)C1)CC2 (single isomer, unassigned) [Compound A-22]
≤ 10		100 to 1000	COc1nc(-c2cccc(-c3cccc(NC(=O)c4cn(C)c(=O)n(C)c4=O)c3C)c2Cl)cc2c1C(NC[C@@H]1CCC(=O)N1)C(O)C2 (single isomer, unassigned) [Compound A-127]
≤ 10	10 to 100		CCOC(=O)C1CN([C@H]2CCc3cc(-c4cccc(-c5cccc(NC(=O)c6cn(C)c(=O)n(C)c6=O)c5Cl)c4Cl)nc(OC)c32)C1 (single isomer, unassigned) [Compound A-85]
≤ 10	≤ 10		COc1nc(-c2cccc(-c3cccc(NC(=O)c4cn(C)c(=O)n(C)c4=O)c3Cl)c2Cl)cc2c1C(N1CC3(CCNC3=O)C1)CC2 [Compound D-3]
≤ 10		100 to 1000	COc1nc(-c2cccc(-c3cccc(NC(=O)c4cn(C)c(=O)n(C)c4=O)c3C)c2Cl)cc2c1[C@@H](N1CC3(CNC(=O)C3)C1)CC2 (single isomer, unassigned) [Compound A-132]
≤ 10	1000 to 10000		COc1nc(-c2cccc(-c3cccc(NC(=O)c4nn(C)c(=O)n(C)c4=O)c3C)c2C)cc2c1[C@@H](N[C@@H]1CCOC[C@H]1O)CC2 (single isomer, unassigned) [Compound A-91]
≤ 10	≤ 10		COc1nc(-c2cccc(-c3cccc(NC(=O)c4cn(C)c(=O)n(C)c4=O)c3Cl)c2Cl)cc2c1[C@@H](N[C@@H]1CCOC[C@@H]1O)CC2 (single isomer, unassigned) [Compound A-29]
≤ 10	> 5000		COc1nc(-c2cccc(-c3cccc(NC(=O)c4nn(C)c(=O)n(C)c4=O)c3C)c2Cl)cc2c1[C@@H](N[C@@H]1COC[C@H]1O)CC2 (single isomer, unassigned) [Compound A-101]
≤ 10	1000 to 10000		COCCOc1nc(-c2cccc(-c3cccc(NC(=O)c4cn(C)c(=O)n(C)c4=O)c3C)c2Cl)cc2c1[C@H](NC[C@@H]1CCC(=O)N1)CC2 (single isomer, unassigned) [Compound A-116]
≤ 10	10 to 100		COc1nc(-c2cccc(-c3cccc(NC(=O)c4cn(C)c(=O)n(C)c4=O)c3C)c2C)cc2c1C(N1CC(C)(O)C1)CC2 [Compound D-17]
≤ 10	100 to 1000		COc1nc(-c2cccc(-c3cccc(NC(=O)c4nn(C)c(=O)n(C)c4=O)c3C)c2Cl)cc2c1[C@H](N[C@@H]1COC[C@@H]1O)CC2 (single isomer, unassigned) [Compound A-110]
≤ 10	10 to 100		COc1nc(-c2cccc(-c3cccc(NC(=O)c4cn(C)c(=O)n(C)c4=O)c3C)c2C)cc2c1[C@H](N1CC(O)C1)CC2 (single isomer, unassigned) [Compound A-80]
≤ 10	10 to 100		COc1nc(-c2cccc(-c3cccc(NC(=O)c4cn(C)c(=O)n(C)c4=O)c3C)c2C)cc2c1C(N1CC(C)(OC)C1)CC2 [Compound D-18]
≤ 10	10 to 100		COc1nc(-c2cccc(-c3cc(Cl)cc(NC(=O)c4cn(C)c(=O)n(C)c4=O)c3C)c2Cl)cc2c1[C@@H](NC[C@@H]1CCC(=O)N1)CC2 [Compound A-61]
≤ 10	100 to 1000		COc1nc(-c2cccc(-c3cccc(NC(=O)c4nn(C)c(=O)n(C)c4=O)c3Cl)c2Cl)cc2c1[C@@H](N[C@@H]1CCOC[C@H]1O)CC2 (single isomer, unassigned) [Compound A-93]
